{"source": "patent US20210298307A1", "about": "(priority 2020, published 2021)", "key": {"Ralstonia solanacearum": {"test_system": "Ralstonia solanacearum", "type": "in vivo", "settings": "beef tomato, foliar spray at 3 and 10 dpi, 5 mg/L IBA and/or 15 mg/L Kinetin in 0.1% (v/v) Tween 80; for Severity score at days post infection (dpi): 9 / Severity score at days post infection (dpi): 11 / Severity score at days post infection (dpi): 13: 0-5 disease scale, mean n=12; for Severity score at days post infection (dpi): 9: 9 dpi; for Severity score at days post infection (dpi): 11: 11 dpi; for Severity score at days post infection (dpi): 13 / Survival Rate (13 dpi): 13 dpi; for Survival Rate (13 dpi): n=12"}, "R. solanacearum [1]": {"test_system": "R. solanacearum", "type": "in vivo, Ralstonia solanacearum", "settings": "beef tomato, soil drench at 3 and 10 dpi, 5 mg/L IBA and/or 15 mg/L Kinetin; for Severity score at days post infection (dpi): 9 / Severity score at days post infection (dpi): 11 / Severity score at days post infection (dpi): 13: 0-5 disease scale, mean n=12; for Severity score at days post infection (dpi): 9: 9 dpi; for Severity score at days post infection (dpi): 11: 11 dpi; for Severity score at days post infection (dpi): 13 / Survival Rate (13 dpi): 13 dpi; for Survival Rate (13 dpi): n=12"}, "R. solanacearum [2]": {"test_system": "R. solanacearum", "type": "in vivo, Ralstonia solanacearum", "settings": "beef tomato, soil drench before inoculation and at 3 and 10 dpi, 5 mg/L IBA and/or 20 mg/L Kinetin; for Severity score at days post infection (dpi): 9 / Severity score at days post infection (dpi): 11 / Severity score at days post infection (dpi): 13: 0-5 disease scale, mean n=12; for Severity score at days post infection (dpi): 9: 9 dpi; for Severity score at days post infection (dpi): 11: 11 dpi; for Severity score at days post infection (dpi): 13 / Survival Rate (13 dpi): 13 dpi; for Survival Rate (13 dpi): n=12"}}, "note": "Where two headings read alike, the source gives them in different places. Marks after values point to notes of the source that are not given here."}
{"molecule": "O=C(O)CCCc1c[nH]c2ccccc12", "note": "[IBA, indole-3-butyric acid]", "values": [{"measurement": "Severity score at days post infection (dpi): 9", "setting": "Ralstonia solanacearum", "value": "0.25*"}, {"measurement": "Severity score at days post infection (dpi): 11", "setting": "Ralstonia solanacearum", "value": 2.50}, {"measurement": "Severity score at days post infection (dpi): 13", "setting": "Ralstonia solanacearum", "value": 3.25}, {"measurement": "Survival Rate (13 dpi)", "setting": "Ralstonia solanacearum", "value": 58, "unit": "%"}, {"measurement": "Severity score at days post infection (dpi): 9", "setting": "R. solanacearum [1]", "value": "0.25*"}, {"measurement": "Severity score at days post infection (dpi): 11", "setting": "R. solanacearum [1]", "value": "1.00*"}, {"measurement": "Severity score at days post infection (dpi): 13", "setting": "R. solanacearum [1]", "value": 2.50}, {"measurement": "Survival Rate (13 dpi)", "setting": "R. solanacearum [1]", "value": 67, "unit": "%"}, {"measurement": "Severity score at days post infection (dpi): 9", "setting": "R. solanacearum [2]", "value": 0.92}, {"measurement": "Severity score at days post infection (dpi): 11", "setting": "R. solanacearum [2]", "value": 1.58}, {"measurement": "Severity score at days post infection (dpi): 13", "setting": "R. solanacearum [2]", "value": "2.17*"}, {"measurement": "Survival Rate (13 dpi)", "setting": "R. solanacearum [2]", "value": 75, "unit": "%"}]}
{"molecule": "c1coc(CNc2ncnc3nc[nH]c23)c1", "note": "[Kinetin, N6-furfuryladenine]", "values": [{"measurement": "Severity score at days post infection (dpi): 9", "setting": "Ralstonia solanacearum", "value": 0.42}, {"measurement": "Severity score at days post infection (dpi): 11", "setting": "Ralstonia solanacearum", "value": 2.08}, {"measurement": "Severity score at days post infection (dpi): 13", "setting": "Ralstonia solanacearum", "value": 3.17}, {"measurement": "Survival Rate (13 dpi)", "setting": "Ralstonia solanacearum", "value": 58, "unit": "%"}, {"measurement": "Severity score at days post infection (dpi): 9", "setting": "R. solanacearum [1]", "value": "0.25*"}, {"measurement": "Severity score at days post infection (dpi): 11", "setting": "R. solanacearum [1]", "value": "1.08*"}, {"measurement": "Severity score at days post infection (dpi): 13", "setting": "R. solanacearum [1]", "value": 2.58}, {"measurement": "Survival Rate (13 dpi)", "setting": "R. solanacearum [1]", "value": 75, "unit": "%"}, {"measurement": "Severity score at days post infection (dpi): 9", "setting": "R. solanacearum [2]", "value": 0.83}, {"measurement": "Severity score at days post infection (dpi): 11", "setting": "R. solanacearum [2]", "value": 1.42}, {"measurement": "Severity score at days post infection (dpi): 13", "setting": "R. solanacearum [2]", "value": "2.08*"}, {"measurement": "Survival Rate (13 dpi)", "setting": "R. solanacearum [2]", "value": 75, "unit": "%"}]}
